US9012497B2, “Cyclohexyl carbamate compounds as active anti-cellulite ingredients” (Symrise AG, priority 2010, dated 2015)

Key:
[1] = test system: 3T3 cells; experiment: ATP assay, inhibition of proliferation; format: cell-based; details: Mus musculus, NIH3T3, 48 h, non-cytotoxic dilutions, mean values of at least 2 independent tests
Experimental: 3T3 cells (mouse […] fibroblasts) were seeded in 96-well plates. After 24 h cultivation at 37° C. and 5% CO2 in DMEM (Dulbecco's Modified Eagle Medium), cells were treated with test substances for another 48 h. […] ATP content in the cells is measured by
The inhibition of proliferation was calculated by:
[formula] wherein RLU test substance=relative luminescent units of the wells with test substance and with cells RLU control=relative luminescent units of the wells without test substance, but with cells RLU control without cells=relative luminescent units of the wells without test substance and without cells
The IC50 is calculated from the proliferation inhibition [%] in a series of non-cytotoxic dilutions of tested samples. This is the concentration at which the proliferation is 50% inhibited.

[2] = target: T1, pancreatic lipase (PL) (Sus scrofa, UniProt P00591); experiment: Inhibition of PL, MUF oleate hydrolysis; format: biochemical; details: mean values of at least 2 independent tests
T1 construct: purchased Sigma-Aldrich
T1 sequence (P00591 1-450): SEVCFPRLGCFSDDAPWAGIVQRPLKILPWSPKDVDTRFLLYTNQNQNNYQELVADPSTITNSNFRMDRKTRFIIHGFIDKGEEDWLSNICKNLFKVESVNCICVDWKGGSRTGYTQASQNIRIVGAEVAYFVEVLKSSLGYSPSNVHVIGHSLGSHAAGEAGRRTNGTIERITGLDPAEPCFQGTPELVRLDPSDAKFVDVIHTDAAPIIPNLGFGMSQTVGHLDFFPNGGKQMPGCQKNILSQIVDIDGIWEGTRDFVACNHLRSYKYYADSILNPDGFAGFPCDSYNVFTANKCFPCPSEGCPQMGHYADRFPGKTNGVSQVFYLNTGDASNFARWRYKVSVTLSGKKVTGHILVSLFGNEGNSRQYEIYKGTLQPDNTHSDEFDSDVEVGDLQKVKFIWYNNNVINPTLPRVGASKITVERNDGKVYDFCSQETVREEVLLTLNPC
Text: (§1) Lipogenesis is perceived as the storage of triglycerides in adipocytes. The inhibition of this storage can take place by means of the inhibition of the activity of extracellular lipoprotein lipase (LPL) in that the hydrolysis of extracellular triglycerides and therefore the absorption of free fatty acids by adipocytes are reduced. As a preliminary test, the inhibition of pancreatic lipase (PL) is investigated.
PL (Sigma-Aldrich), in the presence of test substances in different use concentrations has methylumbelliferyl oleate (MUF oleate) added as a substrate. Fluorescent methylumelliferon (MUF), is produced by hydrolysis of the MUF oleate by PL and is quantified. The inhibition of the hydrolysis of the MUF oleate is a measure of the inhibition of activity of the PL.
[formula] wherein MUF test substance=MUF concentration of the wells with test substance and with PL MUF control=MUF concentration of the wells without test substance, but with PL MUF control without PL=MUF concentration of the wells without test substance and without PL
The IC50 is calculated from the inhibition of the PL [%] in a series of dilutions of tested samples. This is the concentration, at which the activity of the PL is 50% inhibited.

[3] = test system: 3T3-L1 cells; experiment: Lipolysis assay, in vitro on 3T3-L1 cells, free glycerol release; format: cell-based; details: Mus musculus; differentiated 3T3-L1 cells, about 20 hours of incubation; mean values from at least 2 independent tests; read-out: Stimulation of lipolysis EC50
Experimental: 3T3-L1 cells (mouse embryonic fibroblast-like adipocyte cell line) are seeded in a 48-well plate with collagen I-coating in a concentration of 3×10^4 cells/well. The cultivation and differentiation of the cells takes place analogously to the details in Example 2 (adipogenesis assay).
Various concentrations of the test substances are applied to the cells in DMEM, with bovine serum albumen added. After about 20 hours of incubation, the quantification of free glycerol in the supernatant of the cells takes place, which is released by the cells after hydrolysis of triglycerides in the cells and is a measure of the lipolysis of the cells. The quantification of the free glycerol is carried out based on an enzymatic method with a free glycerol reagent.
(§2) The stimulation of the lipolysis in the presence of test substances is calculated according to the following equation:
[formula] wherein A test substance=absorption of the wells with test substance and with cells A test substance without cells=absorption of the wells with test substance without cells (absorption control) A control=absorption of the wells without test substance, but with cells A control without cells=absorption of the wells without test substance and without cells
The EC50 is calculated from the lipolysis stimulation [%] in a series of dilutions of tested samples. This is the concentration at which the lipolysis is 50% stimulated.

[4] = test system: 3T3-L1 cells; experiment: Adipogenesis assay (in vitro), Nile Red lipid staining; format: cell-based; details: Mus musculus, mean values of at least 2 independent tests, read-out: Adipogenesis inhibition IC50
Experimental: 3T3-L1 cells (mouse embryonic fibroblast-like adipocyte cell line) are seeded in a 48-well plate with collagen I-coating in a concentration of 3×10^4 cells/well. After 72 h cultivation at 37° C. and 5% CO2 in DMEM (Dulbecco's Modified Eagle Medium), enriched with 10% calf serum, various concentrations of the test substances in DMEM, enriched with 10% foetal calf serum and to which are added 1 μg/ml insulin, 0.25 μM dexamethasone and 0.5 mM IBMX (3-isobutyl-1-methylxanthine), are added and incubated for a further 48 h. A media change takes place, in that DMEM, enriched with 10% foetal calf serum and with 1 μg/ml insulin added, are applied. After renewed cultivation for 48 h, a further media change takes place, in which DMEM, enriched with 10% foetal calf serum, is applied.
After a further incubation for 72 h, the intracellularly stored lipids are quantified as a measure for the differentiation of the cells by measuring the fluorescence after staining of the lipids with the fluorescent dye Nile Red.
The inhibition of the adipogenesis in the presence of the test substances is calculated according to the following equation:
[formula] wherein RFU test substance=relative fluorescent units of the wells with test substance and with cells RFU control=relative fluorescent units of the wells without test substance, but with cells RFU control without cells=relative fluorescent units of the wells without test substance and without cells The IC50 is calculated from the adipogenesis inhibition [%] in a series of dilutions of tested samples. This is the concentration at which the adipogenesis is 50% inhibited.

[5] = target: T2, lipoprotein lipase (LPL) (Mus musculus, UniProt P11152); experiment: Inhibition of LPL (lipogenesis assay), MUF oleate hydrolysis; format: biochemical; details: LPL obtained from differentiated 3T3-L1 cells; mean values of at least 2 independent tests
T2 construct: endogenous in cells; host or cells: differentiated 3T3-L1 cells (mouse); heparin-released supernatant
T2 sequence (P11152 28-474): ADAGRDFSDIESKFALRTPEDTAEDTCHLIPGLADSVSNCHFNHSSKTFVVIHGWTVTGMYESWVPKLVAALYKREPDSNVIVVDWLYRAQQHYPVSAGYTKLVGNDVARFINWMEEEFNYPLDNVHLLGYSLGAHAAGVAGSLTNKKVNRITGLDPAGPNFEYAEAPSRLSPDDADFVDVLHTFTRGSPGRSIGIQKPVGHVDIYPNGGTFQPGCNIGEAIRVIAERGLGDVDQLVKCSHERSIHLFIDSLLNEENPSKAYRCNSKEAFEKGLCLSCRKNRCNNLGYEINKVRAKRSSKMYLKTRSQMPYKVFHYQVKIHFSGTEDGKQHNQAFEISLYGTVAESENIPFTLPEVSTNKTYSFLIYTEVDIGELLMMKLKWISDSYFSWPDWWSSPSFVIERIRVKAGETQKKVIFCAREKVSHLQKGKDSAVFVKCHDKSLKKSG
Text: as §1
The results of the inhibition of the PL are used as a preliminary test and are confirmed on LPL. To obtain LPL, 3T3-L1 cells (mouse embryonic fibroblast-like adipocyte cell line) are seeded in a 6-well plate with collagen I-coating in a concentration of 3×10^5 cells/well. The cultivation and differentiation of the cells takes place analogously to the details in Example 2 (adipogenesis assay). During the differentiation LPL is increasingly expressed. The LPL is present in a membrane-bound state and is released by one hour incubation with heparin solution at 2-8° C. to the supernatant of the cells.
The LPL thus obtained, in the presence of test substances in different use concentrations, has methylumbelliferyl oleate (MUF oleate) added as the substrate. Fluorescent methylumbelliferyl (MUF) is produced by hydrolysis of the MUF oleate by LPL and is quantified. The inhibition of the hydrolysis of the MUF oleate is a measure of the inhibition of the activity of the LPL and therefore the lipogenesis.
[formula] wherein MUF test substance=MUF concentration of the wells with test substance and with LPL MUF control=MUF concentration of the wells without test substance, but with LPL MUF control without LPL=MUF concentration of the wells without test substance and without LPL
The IC50 is calculated from the inhibition of the LPL [%] in a series of dilutions of tested samples. This is the concentration at which the activity of the LPL and therefore the lipogenesis is 50% inhibited.

[6] = test system: ex vivo pig skin model including subcutis fat layer; experiment: Lipolysis assay, ex vivo pig skin model, free glycerol release; format: cell-based; details: conc. 0.1% in cosmetic test preparation, topical on ex vivo pig skin, 24 hours, versus placebo
Text: Full thickness pig skin patches (pig skin model including subcutis fat layer as described in EP 1 939 279) are excised from the dorsal part of young pig slaughtered for meat. The ex vivo pig skin models have a size of 7×3 mm (diameter×height). They are placed on a titanium grid dipped in culture medium. On top of the skin samples formulations are applied. In parallel to a cosmetic test preparation containing one or more compounds of formula (I) a placebo preparation without any compound of formula (I) is applied as reference (blank).
After 24 hours of incubation, the quantification of free glycerol in the medium surrounding the pig skin models was performed. The glycerol is released by the cells after hydrolysis of triglycerides in the cells of the adipose tissue and is a measure of the lipolysis of the pig skin models. The quantification of the free glycerol is carried out based on an enzymatic method with a free glycerol reagent.
Cosmetic Test Preparation:
Phases A and B are heated to 70° C. separately. Pemulen TR1 as well as Ultrez-21 are dispersed in phase B when heated to 70° C. Phase B/C is added to phase A by mixing with an Ultra Turrax, followed by emulsifying. Phase D is slowly added to phase A/B/C using a paddle mixer and a pH 5.5-6 is adjusted. The formulation is cooled down while mixing with a paddle mixer. Phase E is prepared by dissolving one or more compounds of formula (I) in Hydrolite-5. Subsequently, phase E is added to the mixture of phase A-D.
as §2
[formula] wherein A test substance=absorption of the wells with medium of ex vivo skin models, on which the formulation containing the test substance was applied A placebo=absorption of the wells with medium of ex vivo skin models, on which the placebo without test substance was applied

CCCCNC(=O)OC1CC(C)CC(C)(C)C1 (centres unmarked) [BIO1616, Butyl-carbamic acid 3,3,5-trimethyl-cyclohexyl ester]
IC50 [1]: 220 µM | IC50 [2]: 900 µM | EC50 [3]: 450 µM | IC50 [4]: 120 µM | IC50 [5]: 1020 µM

CCc1ccc(NC(=O)OC2CC(C)CC(C)C2)cc1 (centres unmarked) [BIO1823, (4-Ethyl-phenyl)-carbamic acid 3,5-dimethyl-cyclohexyl ester]
IC50 [1]: 1390 µM | Stimulation of lipolysis [6]: 28% | EC50 [3]: 460 µM | IC50 [4]: 62 µM

CCC(C)NC(=O)OC1CC(C)CC(C)(C)C1 (centres unmarked) [BIO1844, sec-Butyl-carbamic acid 3,3,5-trimethyl-cyclohexyl ester]
IC50 [1]: 478 µM | IC50 [2]: 350 µM | EC50 [3]: 210 µM | IC50 [4]: 89 µM | IC50 [5]: 720 µM
